Paper PMC7663772, “Optimizing the Profile of [^99mTc]Tc–NT(7–13) Tracers in Pancreatic Cancer Models by Means of Protease Inhibitors” (International Journal of Molecular Sciences, 2020)

Experiments:
AsPC-1 xenografts = conditions: mouse, in vivo; cited from earlier work
Capan-1 cells = test: NTS1R-specific cell uptake/internalization in Capan-1 cells; type: cell-based, human; conditions: 1 h incubation at 37 °C
Procedure: (§1) The human pancreatic adenocarcinoma AsPC-1, PANC-1, MiaCapa-2, and Capan-1 cell lines were obtained from LGC Standards GmbH (Wesel, Germany). All culture reagents were purchased from Gibco BRL, Life Technologies (Grand Island, NY, USA) or from Biochrom KG Seromed (Berlin, Germany). Cells were grown in Roswell Park Memorial Institute-1640 Medium (RPMI-1640; AsPC-1 cells) or Dulbecco’s Modified Eagle’s Medium (DMEM; PANC-1, MiaCapa-2, and Capan-1 cells) with GlutaMAX-I, supplemented with 10% (v/v) fetal bovine serum (FBS), 100 U/mL penicillin, and 100 μg/mL streptomycin, and kept in a controlled humidified air containing 5% CO2 at 37 °C. […]
(§2) For internalization assays, AsPC-1, PANC-1, MiaCapa-2, and Capan-1 cells were seeded in six-well plates (≈1 × 10^6 cells per well) the day before the experiment. […] Non-specific internalization was determined by a parallel triplicate series containing 1 μM NT. […] Sample radioactivity was measured on the gamma counter, and the percentage of specific internalized and membrane-bound fractions were calculated with Microsoft Excel (after subtracting the non-specific from the overall internalized and membrane-bound counts). Results represent the specific mean internalized ± SD of total added radioactivity per well from three experiments performed in triplicate. […]

MiaCapa-2 cells = test: NTS1R-specific cell uptake/internalization in MiaCapa-2 cells; type: cell-based, human; conditions: 1 h incubation at 37 °C
Procedure: as §1, §2

WiDr cells = test system: WiDr cells; parameters: method as in PMID 32526874; conditions: 1 h incubation ref 39; cited from earlier work
PANC-1 cells = test: NTS1R-specific cell uptake/internalization in PANC-1 cells; type: cell-based, human
Procedure: as §1, §2

AsPC-1 cells = test: NTS1R-specific cell uptake/internalization in AsPC-1 cells; type: cell-based, human; conditions: for specific cell uptake: AsPC-1 cells, 1 h incubation at 37 °C, NTS1R-specific (non-specific with 1 μM NT subtracted)
Procedure: The human pancreatic adenocarcinoma AsPC-1, PANC-1, MiaCapa-2, and Capan-1 cell lines were obtained from LGC Standards GmbH (Wesel, Germany). All culture reagents were purchased from Gibco BRL, Life Technologies (Grand Island, NY, USA) or from Biochrom KG Seromed (Berlin, Germany). Cells were grown in Roswell Park Memorial Institute-1640 Medium (RPMI-1640; AsPC-1 cells) or Dulbecco’s Modified Eagle’s Medium (DMEM; PANC-1, MiaCapa-2, and Capan-1 cells) with GlutaMAX-I, supplemented with 10% (v/v) fetal bovine serum (FBS), 100 U/mL penicillin, and 100 μg/mL streptomycin, and kept in a controlled humidified air containing 5% CO2 at 37 °C. Splitting of cells with a ratio of 1:3 to 1:5 was performed when approaching confluency, using a trypsin/EDTA (0.05%/0.02% w/v) solution.
For internalization assays, AsPC-1, PANC-1, MiaCapa-2, and Capan-1 cells were seeded in six-well plates (≈1 × 10^6 cells per well) the day before the experiment. Cells were rinsed twice with ice-cold internalization medium (IM; culture medium supplemented by 1% (v/v) FBS), and then fresh IM was added (1.2 mL) at 37 °C, followed by test radiopeptide (250 fmol total peptide in 150 μL IPBS (0.5% w/v BSA–PBS,) 100,000–200,000 cpm). Non-specific internalization was determined by a parallel triplicate series containing 1 μM NT. After incubation at 37 °C, the plates were placed on ice, the medium was collected, and the plates were washed with IPBS (1 mL). Membrane-bound fractions were collected by incubating the cells 2 × 5 min in acid-wash solution (2 × 600 µL; 50 mM glycine buffer pH 2.8, 0.1 M NaCl) at room temperature. […] Sample radioactivity was measured on the gamma counter, and the percentage of specific internalized and membrane-bound fractions were calculated with Microsoft Excel (after subtracting the non-specific from the overall internalized and membrane-bound counts). Results represent the specific mean internalized ± SD of total added radioactivity per well from three experiments performed in triplicate. […]

NTS1R [1] = test system: NTS1R; parameters: method as in PMID 17594090; conditions: read-out: receptor affinity (IC50); cited from earlier work
[2] = mouse, 2 h; cited from earlier work
NTS1R [3] = test system: NTS1R; parameters: method as in PMID 21883013; conditions: small number of patients ref 30; cited from earlier work
[4] = mouse, in vivo; cited from earlier work

In the case of “Ac–Lys(1,4,7,10-tetraazacyclododecane–1,4,7,10-tetraacetic acid)–Pro–Me–Arg–Arg–Pro–Tyr–Tle–Leu–OH [[^68Ga]Ga–DOTA–NT–20.3]”, the kidney values (AsPC-1 xenografts) is listed as “about the same values”.
In the case of “[^68Ga]Ga–NODAGA–Lys(Cy5**)–AEEAc–[Me–Arg^8,Tle^12]NT(7−13)”, the kidney values (AsPC-1 xenografts) is given as 20 % IA/g.
In the case of “[^99mTc]Tc–[N4–Gly^7]NT(7–13) [[^99mTc]Tc–DT1]”, the specific cell uptake (Capan-1 cells) is given as 0.4% ± 0.1%, the specific cell uptake (MiaCapa-2 cells) is given as 2.7% ± 0.3% and the specific cell binding (WiDr cells) is given as 10.1 ± 2.3%. The “I, internalized fraction, specific” value (PANC-1 cells; PANC-1, 1 h incubation, of total-added activity) was 7.30±2.41, the specific cell uptake (PANC-1 cells; PANC-1 cells, 1 h incubation at 37 °C, NTS1R-specific) was 8.1% ± 2.8% and the “I, internalized fraction, specific” value (AsPC-1 cells; AsPC-1, 1 h incubation, of total-added activity) was 14.11±2.28. The specific cell uptake (AsPC-1 cells) was 15.2% ± 2.6%.
For “[^99mTc]Tc–[N4–βAla^7,Dab^9,Tle]NT(7–13) [[^99mTc]Tc–DT6]”, the IC50 (NTS1R [1]) is given as 0.08 ± 0.02 nM, the “stability in mice plasma, intact” value [2] is given as > 90% and the “NTS1R targeting of tumor lesions in patients” value (NTS1R [3]) is given as “poor NTS1R targeting of tumor lesions”. The specific cell binding (WiDr cells) was 1.0 ± 0.4%.
For “[^99mTc]Tc–[N4–βAla^7,Dab^9]NT(7–13) [[^99mTc]Tc–DT5]”, the “renal values in mice” value [4] is listed as “high renal values” and the specific cell uptake (AsPC-1 cells) is listed as 8.4% ± 0.8%.
